Experimental data from patent publication US10780174B2, “Lipid-linked prodrugs” (The University of British Columbia, priority 2015, dated 2020).
“Also recorded” adds a separate entry of the source. Where two headings read alike, the source gives them in different places.

How the values were obtained:
[1] = In vitro degradation of lipid-linked prodrugs in LNP, mouse plasma; format: in vitro ADME; details: for prodrug degradation over 24 h in mouse plasma: LNP, 0, 2, 4 and 24 h; for prodrug cleavage/degradation after 1 h in plasma: 37° C., mouse plasma; for release of active drug (UPLC chromatogram) in mouse plasma: 24 h incubation
Method: (§1) Quantitation of prodrugs by HPLC: LD-DEX/DTX were quantified by ultra high-pressure liquid chromatography (UHPLC) using a Waters Acquity™ UPLC system equipped with a photodiode array detector (PDA) and evaporative light scattering (ELS) detector; Empower™ data acquisition software version 3.0 was used (Waters™, USA). Separations were performed using a Waters Acquity™ BEH C18 column (1.7 μm, 2.1×100 mm) at a flow rate of 0.5 ml/min, with mobile phases A and B consisting of methanol/10 mM ammonium bicarbonate (80/20% v/v) and methanol/acetonitrile (80/20% v/v), respectively. The mobile phases were delivered at a programmed linear gradient (45%-80% B in 1 min then to 99% B at 2 min) at a column temperature of 55° C. The analyte was measured by PDA (at a wavelength of 239 nm) and ELS detector against calibration standard curves. For the analysis of LD-DEX/DTX breakdown to active compound, linear gradients of 20/80% to 100/0% (acetonitrile/water, v/v) over 7 min were used.
To determine the biodegradability of the dexamethasone or docetaxel prodrugs (LD-DEX/DTX), 1 mg/mL LNP was incubated in mouse plasma (Cedarlane™, Burlington, Ontario) or PBS supplemented with 10 U of purified esterase (Sigma-Aldrich™, St. […] Post incubation, four volumes of chloroform/methanol (2:1) was added and the mixture was vortex mixed. Samples were centrifuged at 13,000 g for 5 minutes and the upper phase was discarded. The remaining organic phase was dried down under vacuum and the resulting lipid extract was dissolved in methanol/acetonitrile (1:1). Quantity of parent LD-DEX/DTX compound was determined by ultra high pressure liquid chromatography on a Waters Acquity™ H-Class UPLC System™ equipped with a BEH C18 column and a photodiode array detector.

[2] = Prodrug incorporation (entrapment) in lipid nanoparticles, UHPLC; format: physicochemical; details: for % Entrapment PC-Chol LNP: LD-DEX prodrug in PC-Chol LNP; for % Entrapment [ionizable LNP]: LD-DEX prodrug in ionizable LNP
Method: (§2) Preparation of LNP Systems: PC-Chol LNP systems were prepared by rapidly mixing POPC, cholesterol, lipid-linked prodrug and PEG-DMPE (in molar ratio of 49/39/10/2) dissolved in ethanol with phosphate-buffered saline using a T-junction mixer. Formulations were dialyzed against phosphate-buffered saline to remove residual ethanol and to raise the pH to 7.4. PC-TO and ionizable LNP systems were prepared in the same way except that the lipid compositions for these systems are: POPC, triolein, lipid-linked prodrug and PEG-DSPE (in molar ration of 19/70/10/1), and ionizable lipid, DSPC, cholesterol, lipid-linked prodrug and PEG-DMPE (in molar ration of 40/10/38.5/10/1.5), respectively.
as §1

[3] = Particle size and polydispersity of LNP containing prodrug (dynamic light scattering); format: physicochemical; details: PDI in brackets; for Particle size (PDI) PC-Chol LNP: LD-DEX prodrug in PC-Chol LNP; for Particle size (PDI) [ionizable LNP]: LD-DEX prodrug in ionizable LNP
Method: as §2
Characterization of LNP: Particle size was determined by dynamic light scattering using a Malvern Zetasizer Nano ZS™ (Malvern, UK) following buffer exchange into phosphate-buffered saline. Number-weighted size and distribution data was used. Lipid concentrations were determined by measuring total cholesterol using the Cholesterol E enzymatic assay kit from Wako Chemicals USA™ (Richmond, Va.). The morphology of LNP formulations containing LD-DEX was analyzed by cryogenic-transmission electron microscopy (cryoTEM) as described previously [Leung et al. (2012)].

[4] = In vitro dissociation of lipid-linked prodrugs from LNP in human plasma; format: in vitro ADME; details: human plasma over 24 h, 37° C., PC-Chol LNP or ionizable LNP
Method: LNP were incubated for 0, 3, 5 and 24 h at 37° C. in 400 μL of sterile human plasma (Cedarlane™, Burlington, Ontario) at a final lipid concentration of 1.2 mM. At the various time-points, samples were loaded onto a 1.5×27 cm Sepharose CL-4B column (Sigma-Aldrich™, St. Louis, Mo.). 30×2 mL fractions were collected. Three volumes of methanol/acetonitrile (1:1) were added to each fraction and analyzed by UHPLC to determine the residual LD-DEX/DTX as described above.

[5] = tested on: purified porcine esterase; assay: In vitro degradation of lipid-linked prodrugs in LNP, purified esterase in PBS; details: for prodrug degradation over 24 h in purified esterase: LNP, 0, 2, 4 and 24 h; for release of active drug (UPLC chromatogram) in purified esterase: 24 h incubation
[6] = tested on: immunostimulatory effects of LNP-CpG (plasma cytokines); assay: In vivo immune suppression by LD-DEX prodrugs, LNP-CpG model; design: species or system C57Bl/6 mice; details: mice, i.v., 10 mg/kg of CpG, 2 h post injection
Method: (§3) 6-8 Weeks old female C57Bl/6 mice (Charles River Laboratories™, Wilmington, Mass.) were injected intravenously with lipid nanoparticles containing CpG DNA oligonucleotides (10 mg/kg), mRNA (3 mg/kg) or plasmid DNA (pDNA) (1 mg/kg). Animals were euthanized 2 hours post-injection and blood was collected via intracardiac or saphenous sampling. Plasma was separated from whole blood by centrifugation and analyzed for proinflammatory cytokines using the Mesoscale Proinflammatory Multiplex™ kit (Rockville, Md.) according to manufacturer's instruction. All procedures were approved by the Animal Care Committee at the University of British Columbia and were performed in accordance with guidelines established by the Canadian Council on Animal Care.

[7] = tested on: immunostimulatory effects of LNP-mRNA (plasma cytokines); assay: In vivo immune suppression by LD-DEX prodrugs, LNP-mRNA model; design: species or system C57Bl/6 mice; details: mice, 3 mg/kg of mRNA, 2 h post injection
Method: as §3

[8] = tested on: IL1β expression in RAW 264.7 mouse macrophage cells; assay: In vitro immune suppression, LPS-treated RAW 264.7 cells, IL1β qRT-PCR; format: cell-based; details: 2 ng/mL LPS, 4 h
Method: RAW 264.7 mouse macrophage cells were seeded at 250,000 cells per mL on 12-well plates and incubated at 37° C. overnight. Lipopolysaccharide (LPS) was dissolved in phosphate buffered saline at a concentration of 2 μg/ml. Cells were treated with lipid nanoparticles containing LD-DEX prodrugs and 2 ng/ml of LPS for 4 hours. This LPS concentration was chosen due to its ability to increase IL1β expression approximately 1000 times as compared to untreated cells. At the end of the incubation period, culture medium was aspirated and cellular RNA was extracted using the Purelink RNA™ extraction kit according to manufacturer's protocol (Life Technologies™, Burlington, ON). The concentration of extracted RNA was determined using a Nanodrop Lite™ (Thermo Fisher™). 1 μg of RNA was converted to cDNA using the High Capacity cDNA Reverse Transcription kit (Life Technologies™, Burlington, ON). In order to validate the sample preparation, a no template control and a negative reverse transcriptase control were included. The cDNA was then quantified using comparative real-time qPCR where the Ct (threshold cycle) values are converted to relative quantity using the 2-ΔΔCT method. The primer-probe sets were designed to bind to cDNA of Interleukin-1β(IL1β). Hypoxanthine-guanine phosphoribosyltransferase (HPRT) was chosen as the endogenous normalizer gene, which is known to maintain consistent levels with varying treatments.

[9] = tested on: immunostimulatory effects of LNP-pDNA (plasma cytokines); assay: In vivo immune suppression by LD-DEX prodrugs, LNP-pDNA model; design: species or system C57Bl/6 mice; details: mice, i.v., 1 mg/kg of pDNA, 2 h post injection
Method: as §3

[10] = tested on: purified porcine esterase; details: pig, 1 mg/mL LNP

SMILES | prodrug degradation over 24 h in mouse plasma [1] | prodrug cleavage/degradation after 1 h in plasma ([1]; LNP) | release of active drug (UPLC chromatogram) in mouse plasma ([1]; LNP) | % Entrapment PC-Chol LNP [2] [%] | % Entrapment [ionizable LNP] [2] | Particle size (PDI) PC-Chol LNP [3] | Particle size (PDI) [ionizable LNP] [3] | prodrug dissociation rate from LNP [4] | prodrug dissociation rate from LNP ([4]; listed as LD02) | prodrug degradation over 24 h in purified esterase [5] | release of active drug (UPLC chromatogram) in purified esterase ([5]; LNP) | plasma TNFα and KC/GRO levels versus control LNP-CpG [6] | plasma cytokine levels versus control LNP-mRNA ([7]; 3 mg/kg) | plasma cytokine levels versus control LNP-mRNA ([7]; listed as LD03, 3 mg/kg) | IL1β expression versus control LNP without prodrug [8] | plasma cytokine levels versus control LNP-pDNA ([9]; 1 mg/kg) | plasma cytokine levels versus control LNP-pDNA ([9]; listed as LD03, 1 mg/kg) | prodrug cleavage in plasma ([1]; LNP, 1 or 4 h incubation in plasma) | prodrug degradation over 24 h in purified esterase [10] | prodrug cleavage in PBS containing isolated esterases ([5]; LNP, 1 or 4 h incubation)
CCCCC/C=C\C/C=C\CCCCCCCC(=O)OC[C@H](COC(=O)CCC(=O)OCC(=O)[C@@]1(O)[C@H](C)C[C@H]2[C@@H]3CCC4=CC(=O)C=C[C@]4(C)[C@@]3(F)[C@@H](O)C[C@@]21C)OC(=O)CCCCCCC/C=C\C/C=C\CCCCC [LD02-DEX, 2,3-dilinoleoyloxypropyl (2-((8S,9R,10S,11S,13S,14S,16R,17R)-9-fluoro-11,17-dihydroxy-10,13,16-trimethyl-3-oxo-6,7,8,9,10,11,12,13,14,15,16,17-dodecahydro-3H-cyclopenta[a]phenanthren-17-yl)-2-oxoethyl) succinate] | progressively degraded | virtually no degradation | a peak corresponding to active dexamethasone (DEX) appeared | 100 | [99] % | 53 (0.05) nm | [49 (0.05)] nm | dissociated from lipid nanoparticles at a slower rate than LD03-DEX | dissociates from LNP at a slower rate than that of LD03 | progressively degraded | a peak corresponding to active dexamethasone (DEX) appeared | marked reduction in cytokine levels |  |  |  |  |  |  |  | 
CCCCC/C=C\C/C=C\CCCCCCCCOC(=O)CCC(=O)OCC(=O)[C@@]1(O)[C@H](C)C[C@H]2[C@@H]3CCC4=CC(=O)C=C[C@]4(C)[C@@]3(F)[C@@H](O)C[C@@]21C [LD03-DEX, linoleyl 2-((8S,9R,10S,11S,13S,14S,16R,17R)-9-fluoro-11,17-dihydroxy-10,13,16-trimethyl-3-oxo-6,7,8,9,10,11,12,13,14,15,16,17-dodecahydro-3H-cyclopenta[a]phenanthren-47-yl)-2-oxoethyl succinate] | progressively degraded; also recorded: degraded at a faster rate than LD02-DEX | significant cleavage | a peak corresponding to active dexamethasone (DEX) appeared | 94 | [100] % | 64 (0.06) nm | [48 (0.04)] nm |  |  | progressively degraded | a peak corresponding to active dexamethasone (DEX) appeared | marked reduction in cytokine levels | significantly reduced levels | suppresses the immunostimulatory effects of LNP-mRNA | able to reduce IL1β expression | efficiently suppressed cytokine levels | suppresses the immunostimulatory effects of LNP-pDNA | progressive prodrug cleavage | degraded at a faster rate than LD02-DEX | progressive prodrug cleavage
